Assay results: PMC6511062, “Preclinical candidate for the treatment of visceral leishmaniasis that acts through proteasome inhibition” (Proceedings of the National Academy of Sciences of the …, 2019)
≈ marks a conversion by molar mass, not a printed value. Entries after “also recorded” stand apart in the source; their conditions may differ. Read-outs that look alike come from different tables or passages of the source.

How the values were obtained:
[1] = test system: mouse lymphoma cells; assay: Mouse lymphoma assay; details: for MF (Mutation Frequency) / RTG (Relative Total Growth): positive control
Description: oxidative metabolism system (S9-mix). […]
The maximum […]
concentrations analysed were 410.45 µg/mL (1 mM, the maximum concentration in accordance with current guidelines and 100 µg/mL (limited by toxicity), for the 3 and […]
The mouse lymphoma screen was carried out using test methodology based on established procedures for in vitro gene mutation testing17,18,19,20. […]

[2] = test system: TA100; details: positive control
Description: (§1) oxidative metabolism system (S9-mix). The maximum concentration tested and […]
(§2) Compound 7a was tested in a bacterial mutation screening assay (Ames test) with Salmonella typhimurium TA1535, TA1537, TA98, TA100 and Escherichia coli WP2uvrA(pKM101) in the presence and absence of an exogenous mammalian […]
(§3) The bacterial mutation screening assay was a plate incorporation test carried out as previously described15 and according to current methodology. […]

[3] = test system: TA1535; details: positive control
Description: as §1, §2, §3

[4] = CAD (charged aerosol detector) solubility
[5] = Intrinsic clearance in mouse liver microsomes; type: in vitro ADME
Description: page 13: 4. Parasite assays T. cruzi4, Leishmania donovani axenic amastigote, cidal axenic amastigote and intra- macrophage drug sensitivity assays were conducted as previously described5,6. a. […] Instead of a single readout at 72 h, multiple identical plates were used and read at different time points (24, 48, 72 h). Rate of kill curves showing the luminescence signal at each time point for each concentration were plotted. 5. […] The rate of intrinsic clearance (CLint) of each test compound was then calculated using the following calculation: CLint(mL/min/g liver) = k x V x Microsomal protein yield Where V (mL/mg protein) is the incubation volume/mg protein added and microsomal protein yield is taken as 52.5 mg protein/g liver. Verapamil (0.5 μM) was used as a positive control to confirm acceptable assay performance. 6. Pharmacokinetic studies. a. Mouse and dog PK Mouse pharmacokinetic studies were conducted in male CD-1 mice and male beagle dogs. 3 animals per group were used for each study performed. A dose of 3 mg/kg was administered intravenously, in a bolus form to mice and infused over a 30 min period to dogs. For all the intravenous studies compound were dissolved in 5% DMSO/20% kleptose in saline. A dose of 10 mg/kg was orally administered by gavage to the two species in a suspension of 1% methylcellulose to investigate oral pharmacokinetics. S13

[6] = test system: L. donovani intramacrophage amastigotes; assay: L. donovani intramacrophage assay (amastigotes in differentiated THP-1 cells); type: cell-based, Leishmania donovani; details: for EC50: Leishmania donovani, L. donovani amastigotes in differentiated THP-1 cells, read-out: Intramacrophage EC50
Description: T. cruzi4, Leishmania donovani axenic amastigote, cidal axenic amastigote and intra-
macrophage drug sensitivity assays were conducted as previously described5,6. […]
5. Intrinsic clearance (CLint) […]
6. Pharmacokinetic studies. […]

[7] = test system: THP-1 cells; assay: Mammalian cell growth inhibition (THP-1); type: cell-based; details: Homo sapiens
Description: We hypothesized that, in view of their structural similarity, 1 and 2 probably shared the same mechanism of action.

[8] = test system: TA1537; assay: Ames test, strain TA1537
Description: as §1, §2, §3

[9] = test system: Salmonella typhimurium TA1535, TA1537, TA98, TA100 and Escherichia coli WP2uvrA(pKM101); assay: Bacterial mutation screening assay (Ames test), overall outcome; type: cell-based; details: presence and absence of S9-mix
Description: i. Bacterial Mutation (Ames) Assay
Compound 6 was tested in a bacterial mutation screening assay (Ames test) with Salmonella typhimurium TA1535, TA1537, TA98, TA100 and Escherichia coli WP2uvrA(pKM101) in the presence and absence of an exogenous mammalian oxidative metabolism system (S9-mix). The maximum concentration tested and […]
Compound 6a was tested in a bacterial mutation screening assay (Ames test) with […]
Compound 7a was tested in a bacterial mutation screening assay (Ames test) with […]
as §3

[10] = Solubility in fasted simulated intestinal fluid (FaSSIF); details: for FaSSIF solubility: fasted simulated intestinal fluid; for solubility: fasted simulated intestinal fluid (FaSSIF), fassif
[11] = test system: L. donovani promastigotes; assay: microbe, parasite or virus in culture; type: cell-based, Leishmania donovani; details: read-out: EC50
Description: 9. Mode of action studies a. Cell lines and culture conditions […]
c. Generation of drug-resistant parasites […]
donovani in the continuous presence of this compound. Starting at a sub-lethal […]
After a total of 120 days in
Genomic DNA was harvested from three independently generated L. donovani resistant clones and an age match control, as previously described27. PCR was performed using Platinum PCR Supermix (Invitrogen), as per manufacturer’s […]
generated using primers SubunitB4FW and SubunitB4RV, then sequenced using primer SubunitB4FW (Table S6). To sequence the β5 subunit (LdBPK_361730.1), an […]
sequenced using primer SubunitB5FW. PCR amplification and DNA sequencing were performed in triplicate for each independently generated cell line. The Leishmania donovani BPK282A1 sequences of the two subunits were identified in TriTrypDB and […]
e. Generation of overexpression constructs and LdBOB transgenic cell lines The genes encoding the mutated versions of the β4 (LdBPK_360340.1) and the β5 […]
parasites, were synthesised (GeneArt, Thermo Fischer Scientific). The synthetic genes, flanked by BamHI sites were cloned into the equivalent site of pIR1-SAT. The accuracy of all assembled constructs was verified by sequencing.
Mid-log-phase L. donovani promastigotes (LdBOB) were transfected with overexpression constructs using the Human T-Cell Nucleofector kit and the Amaxa Nucleofector electroporator (program V-033). Following transfection, cells were […]
to appropriate drug selection (100 µg/mL nourseothricin). Cloned cell lines were […]
selection for one passage prior to experiments. […]

[12] = test system: TA98; assay: Ames test, strain TA98; details: without S9-mix, dose level 1 per plate, positive control
Description: as §1, §2, §3

[13] = test system: chymotrypsin-like activity of the L. donovani proteasome; assay: biochemical; design: species or system Leishmania donovani; details: lysates from RES II and WT parasites
Description: An in vitro assay was developed that enabled the chymotrypsin-like activity and additional proteolytic activities associated with the proteasome to be directly monitored within proteasome-enriched parasite cell lysates. Likewise, human proteasome from two sources (i.e., commercially pure 26S and enriched proteasome fractions from THP-1 lysates) was tested using the same biochemical assays.
Proteasome enrichment by ultracentrifugation
The protocol described by Kisselev et al.34 was adapted to enrich the proteasomes present in L. donovani and THP1 crude extracts. L. donovani or THP1 cells were resuspended in sucrose buffer (50 mM Tris buffer pH 7.5, 5 mM Magnesium chloride, 1 mM EDTA, 50 mM NaCl, 250 mM sucrose, 2 mM ATP, 1 mM DTT) and lysed by nitrogen cavitation for 15 min (110 bars of 1500 psi). Lysates were centrifuged at 20,000g for 30 min at 4 °C and supernatants containing soluble protein were subjected to an ultracentrifugation step at 300,000g for 2h at 4 °C. The resulting proteasome-containing pellets were resuspended in sucrose buffer and left on ice for 30 min to complete solubilization. Samples were centrifuged for 10 min at 20,000 g to remove insoluble material. Proteins contained in supernatant (proteasome enriched fraction) were measured by Bradford.
Proteasome activity assays
Compounds were dispensed into black 384-well assay plates (Greiner) by acoustic dispensing (LabCyte ECHO). For potency determinations, eleven-point, one in three dilution curves were generated, with a top concentration of 100 µM. Three proteasome activities were measured using a commercially available indirect enzyme-based luminescent assay kit (Promega) with Suc-LLVY-aminoluciferin, Z-LRR-aminoluciferin and Z-nLPnLD-aminoluciferin used as substrates for chymotrypsin-like, trypsin-like and caspase-like activities, respectively. In addition to proteasome samples: L. donovani and THP1-enriched proteasomes, commercially available human purified 26S proteasome (Boston Biochem) was also assessed.

[14] = test system: WP2 uvrA (pKM101); assay: Ames test, strain WP2 uvrA (pKM101); details: with S9-mix, dose level 10 per plate, positive control
Description: as §1, §2, §3

[15] = without S9-mix, dose level 2 per plate
[16] = without S9-mix, dose level 50 per plate
[17] = with S9-mix, dose level 5 per plate
[18] = with S9-mix, dose level 5 per plate, positive control

In the case of `Cc1c2ccccc2c(C)c2c1ccc1ccccc12` [DMBA, 7,12-dimethylbenz[a]anthracene, reference compound], the “Positive / Negative” value ([1]; 3 hour +S9 treatment) is reported as “Positive”, the “MF (Mutation Frequency)” value ([1]; 3 hour +S9 treatment) is reported as 1783.48 ×10-6 and the “RTG (Relative Total Growth)” value ([1]; 3 hour +S9 treatment) is reported as 28%.
With `[N-]=[N+]=[N-].[Na+]` [NaN3, Sodium Azide, reference compound] the “Mean revertants per plate” value [2, 15] was 1050.0, the “Ratio treated / solvent” value [2, 15] was 10.1 and the “Mean revertants per plate” value [3, 15] was 1128.5. For the same compound, the “Ratio treated / solvent” value [3, 15] was 44.5.
For `CCOc1cnc2nc(-c3cccc(NC(=O)N4CCCC4)c3)cn2c1` [Compound 4], the solubility [4] was 7 µg/mL (≈ 19.9 µM), the CLint [5] was 0.59 mL/min/g and the “CLint (intrinsic clearance when incubated with mouse liver microsomes)” value [5] was 0.59 mL/min per gram. For the same compound, the EC50 [6] was 3.3 µM and the EC50 [7] was > 50 µM.
In the case of `Nc1c2ccccc2nc2ccccc12` [Compound 9-AAC, 9-Amino Acridine, reference compound], the “Mean revertants per plate” value [8, 16] is reported as 249.5 and the “Ratio treated / solvent” value [8, 16] is reported as 17.4.
For `O=C(Nc1ccc(F)c(-c2cn3cc(N4CCOCC4)cnc3n2)c1)N1CCCC1` [Compound 6a], the solubility [4] was 39 µg/mL (≈ 95 µM), the CLint [5] was < 0.5 mL/min/g and the AMES [9] was “mutagenic in strain TA1537 when tested in the absence of S9-mix; also recorded: positive”. For the same compound, the EC50 [6] was 0.6 µM, the “improvement of intramacrophage potency” value ([6]; relative to 5) was > 10 fold and the FaSSIF solubility [10] was “poor solubility”. The solubility [10] was 6 µg/mL (≈ 14.6 µM) and the EC50 [7] was > 50 µM.
With `O=C(Nc1ccc(F)c(-c2cn3cc(-c4ccccc4)cnc3n2)c1)N1CCCC1` [Compound 6] the solubility [4] was 8 µg/mL (≈ 19.9 µM), the CLint [5] was 2.6 mL/min/g and the AMES [9] was “not mutagenic; also recorded: negative”. The EC50 [6] was 0.15 µM, the FaSSIF solubility [10] was “poor solubility” and the solubility [10] was 4 µg/mL (≈ 9.96 µM). The EC50 [7] was > 50 µM.
In the case of `O=C(Nc1cccc(-c2cn3cc(N4CCOCC4)cnc3n2)c1)N1CCCC1` [Compound 5], the solubility [4] is reported as 43 µg/mL (≈ 110 µM), the CLint [5] is reported as 0.76 mL/min/g and the “CLint (intrinsic clearance when incubated with mouse liver microsomes)” value [5] is reported as 0.76 mL/min per gram. The EC50 [6] was 8.2 µM and the EC50 [7] was > 50 µM.
`Cc1nc(C)c(C(=O)Nc2ccc(F)c(-c3nc4ncc(-c5ccccn5)cn4n3)c2)o1` [GNF6702, reference compound] gave an EC50 ([11]; RES I (compound 7-resistant clone)) of 0.527 ± 0.012 µM, an EC50 ([11]; RES III (compound 7-resistant clone)) of 0.768 ± 0.038 µM and an EC50 ([11]; WT promastigotes) of 0.0018 ± 2e-06 µM.
For `O=[N+]([O-])c1ccc2c(c1)Cc1ccccc1-2` [Compound 2NF, 2-Nitrofluorene, reference compound], the “Mean revertants per plate” value [12] was 417.5 and the “Ratio treated / solvent” value [12] was 20.5.
For `CC(C)C[C@H](NC(=O)[C@H](CCc1ccccc1)NC(=O)CN1CCOCC1)C(=O)N[C@@H](Cc1ccccc1)C(=O)N[C@@H](CC(C)C)C(=O)[C@@]1(C)CO1` [carfilzomib, reference compound], the “inhibition of chymotrypsin-like activity, RES II vs WT lysates” value [13] was “equal potency”.
In the case of `CCOc1cnc2nc(-c3cccc(NC(=O)c4ccco4)c3)cn2c1` [Compound 3], the solubility [4] is reported as 7 µg/mL (≈ 20.1 µM), the CLint [5] is reported as 1.8 mL/min/g and the “CLint (intrinsic clearance when incubated with mouse liver microsomes)” value [5] is reported as 1.8 mL/min per gram. The EC50 [6] was 4.2 µM and the EC50 [7] was > 50 µM.
For `Nc1ccc2cc3ccccc3cc2c1` [Compound 2-AAN, 2-Aminoanthracene, reference compound], the “Mean revertants per plate” value [2, 17] was 4441.0, the “Ratio treated / solvent” value [2, 17] was 33.6 and the “Mean revertants per plate” value [3, 17] was 490.5. The “Ratio treated / solvent” value [3, 17] was 31.6, the “Mean revertants per plate” value [8, 18] was 153.0 and the “Ratio treated / solvent” value [8, 18] was 6.7. The “Mean revertants per plate” value [14] was 1650.5 and the “Ratio treated / solvent” value [14] was 11.1.
For `COS(C)(=O)=O` [MMS, methylmethansulfonate, reference compound], the “Positive / Negative” value ([1]; 24 hour -S9 treatment) was “Positive”, the “MF (Mutation Frequency)” value ([1]; 24 hour -S9 treatment) was 938.58 ×10-6 and the “RTG (Relative Total Growth)” value ([1]; 24 hour -S9 treatment) was 73%.
